Source: patent EP0289204B1, “Lithium salt-containing pharmaceutical compositions” (EFAMOL HOLDINGS PLC, priority 1987, dated 1988)
Where two headings read alike, the source gives them in different places.

What was measured:
[1] = Protocol: Each 50 ml water contained 11.4 mg lithium. Each aqueous solution was then shaken with 250 ml of chloroform/methanol (2/l by volume). The chloroform/methanol fraction was then separated off and evaporated to dryness under a stream of nitrogen. The mass of dry extract from the chloroform/methanol phase was weighed and its lithium content determined by flame photometry. The lithium content of the aqueous phase was also measured by flame photometry. • (B) 1 g of pure gamma-linolenic acid was dissolved in 10 ml of chloroform/methanol (2/l by volume). The resulting solution was then thoroughly shaken with 50 ml distilled water. The chloroform/methanol phase was then separated off and evaporated to dryness in a stream of nitrogen and the mass of dry extract was weighed.
[2] = Partition of lithium between water and chloroform/methanol (experiment A), lithium determined by flame photometry; assay type: physicochemical; conditions: 50 ml distilled water shaken with 250 ml chloroform/methanol (2/l by volume); range of five repeats
Protocol: Each 50 ml water contained 11.4 mg lithium.

[3] = 1 g in 10 ml chloroform/methanol (2/l by volume) shaken with 50 ml distilled water, range of five repeats
[4] = fatty acid salt, taken as equivalent to the percentage of lithium (experiment A)

Row | SMILES | Percentage of total fatty acid/ fatty acid salt* in: Aqueous phase [1, 3] | Percentage of total fatty acid/ fatty acid salt* in: Chloroform/methanol phase [1, 3] | Percentage of total lithium in: Chloroform/methanol phase [2] | Percentage of total lithium in: Aqueous phase [2] | Percentage of total fatty acid/ fatty acid salt* in: Aqueous phase [1, 4] | Percentage of total fatty acid/ fatty acid salt* in: Chloroform/methanol phase [1, 4] | solubility (physchem; alcohol, organic solvent or mixture) [mg/mL] | solubility (physchem; water) [mg/mL]
1 | CCCCC/C=C\C/C=C\C/C=C\CCCCC(=O)O [Gamma-linolenic acid, reference compound] | 2-9% | 91-98% | – | – | – | – | – | –
2 | [Cl-].[Li+] [Lithium chloride, reference compound] | – | – | 1-5% | – | – | – | – | –
3 | CCCCC/C=C\C/C=C\C/C=C\CCCCC(=O)[O-].[Li+] [Lithium gammalinolenate, Lithium gamma-linolenate] | – | – | 83-89% | 11-17% | 11-17% | 83-89% | > 30 | > 30
